Common to all, as to experiment: inhibition of tumour cell growth, NCI panel, 48 h
In experiment [1] the test system is CCRF-CEM leukemia.
For experiment [2], the system named is CAKI-1 renal.
In experiment [3] the test system is SK-MEL-28 melanoma.
Experiment [4] concerns SN12C renal.
Experiment [5] deals with HOP-62 NSCLC.
The test system of experiment [6] is U251 CNS.
Experiment [7] has as its system SF-539 CNS.
The subject of experiment [8] is NCI-H460 lung.
The test system of experiment [9] is HL-60(TB) leukemia.

Values joined by “and” are separate entries in the source; they are usually repeats but may differ in a detail not shown here. Equal entries are not always repeated.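 Interpolation was linear, between the two tested concentrations surrounding the appropriate level; five concentrations were tested over 48 hours in 96-well plates. The concentration for 50% growth inhibition is given as GI50. TGI: concentration producing complete growth inhibition.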

`O=C(O)[C@H](NS(=O)(=O)c1ccc(F)cc1)c1ccccc1`: the TGI in experiment [1], in experiment [2], in experiment [3], in [4], in experiment [5] and in [6] was over 100 µM in each case. Also, the TGI in experiment [7] and in experiment [8] was over 100 µM throughout.
`O=[N+]([O-])C=C(c1ccc(Cl)cc1)c1ccc(Cl)cc1`: the TGI in experiment [1] was found to be 67.7 µM; in experiment [9] it was 44 µM; in experiment [2] it was 37.7 µM; in [3] it was 31 µM; in experiment [4], 35.6 µM; in experiment [5] it was 37.5 µM. The TGI in [6] came out at 29.8 µM; in [7], 31.5 µM; in [8], 36.7 µM.
In the case of `OC(COC(c1ccccc1)(c1ccccc1)c1ccccc1)C(O)CC1SCCS1` (centres undefined), the TGI in experiment [1] is over 100 µM; in [9] it was over 100 µM; in experiment [2], 66.6 µM; in experiment [3], 48.8 µM; in [4], 45.2 µM; in [5], 30.7 µM. For the same molecule, the TGI in experiment [6] was 62.4 µM; in experiment [7], 43.8 µM.
With `C[C@]12CC[C@H]3[C@@H](CC=C4C[C@@H](N5CCCC5)CC[C@@]43C)[C@@H]1C/C(=C\c1cccc(OCCN3CCOCC3)c1)[C@@H]2O`, the GI50 in [9] was 4.32 µM; in experiment [2] it was 6.91 µM; in experiment [3], 2.01 µM; in [4], 25.9 µM; in experiment [5] it was 2.76 µM; in [6], 2.95 µM. For the same molecule, the GI50 was 1.41 µM in [7] and 3.28 µM in [8]. Besides, the TGI was over 100 µM in experiment [9]; over 100 µM in experiment [2]; 3.99 µM in [3]; over 100 µM in experiment [4]; 9.83 µM in experiment [5]; over 100 µM in experiment [6]. The TGI in [7] was 3.38 µM; in experiment [8], over 100 µM.
For the molecule `CC(=O)[O-].Cn1ccnc1CNCc1nccn1C.[Cu+2].[O-][Cl+3]([O-])([O-])[O-]`, the GI50 in experiment [1] is over 100 µM; in experiment [9], over 100 µM; in experiment [3], over 100 µM; in [4], over 100 µM; in experiment [5], over 100 µM; in experiment [6] it was 33.7 µM. Further, the GI50 was over 100 µM in experiment [7] and 51.2 µM in experiment [8]. Also, the TGI in experiment [1], in [9], in [3], in experiment [4], in experiment [5] and in [6] was over 100 µM in each case. Also, the TGI in [7] and in experiment [8] was over 100 µM throughout.
On to `O=C([CH-]C(=O)c1ccccc1)c1ccccc1.[CH-]1CCCCC1.[CH-]1CCCCC1.[CH-]1CCCCC1.[Sn+4]`, for which the GI50 in experiment [9] was 2.28 µM; in experiment [2] it was 4.52 µM; in experiment [4] it was 4.35 µM; in experiment [5], 7.85 µM; in experiment [6] it was 6.86 µM; in experiment [7], 10.4 µM. In addition, in experiment [8], the GI50 was 8.88 µM. The TGI in experiment [9] came to 6.59 µM; in experiment [2] it was 18.1 µM; in [4], 16.1 µM; in experiment [5], 20 µM; in [6], 20.8 µM; in experiment [7], 27 µM.
In the case of `CC(C)(C)C1CCC2c3c([nH]c4ccccc34)C3C(=O)N(c4ccc(Cl)cc4)C(=O)C3C2C1` (centres undefined), the TGI in experiment [1] is 47.3 µM and > 10 µM; in [9], 38.8 µM and > 10 µM; in experiment [3], over 100 µM; in [4], over 100 µM; in experiment [5] it was over 100 µM; in experiment [6] it was over 100 µM. Besides, the TGI in experiment [7] and in experiment [8] was over 100 µM in each case. For the same molecule, the GI50 in experiment [3] was over 100 µM; in experiment [4], 37.4 µM and > 10 µM; in experiment [5], over 100 µM; in [6] it was 56.5 µM and > 10 µM; in [7], over 100 µM; in [8], 37.2 µM and > 10 µM.
As for `CCCCCCCCCCCCCC[N+](C)(C)CCCCCCCCCCCCCC`, the results for the GI50 in experiment [9] and in experiment [2] were 2.07 µM and 3.56 µM, respectively. The TGI came to 4.89 µM in experiment [9] and 24.3 µM in experiment [2].
As to `CCOC(=O)c1cc2c(cc1Cl)SC(=Nc1ccccc1)N(S(=O)(=O)c1ccc(Cl)cc1)S2(=O)=O`, the GI50 in [1] is 2.57 µM; in experiment [2], 15.7 µM; in experiment [3], 21.6 µM; in experiment [4] it was 15.4 µM; in [5], 16 µM; in [6], 10.6 µM. The GI50 in experiment [7] was 18.3 µM; in experiment [8], 18.8 µM. For the same molecule, the TGI in experiment [1] is 7.4 µM; in [2], 33.7 µM; in experiment [3], 74.6 µM; in experiment [4], 33.2 µM; in [5] it was 32.6 µM; in experiment [6], 25.9 µM. In addition, the values for the TGI in experiment [7] and in [8] were 34.8 µM and 46.7 µM, respectively.
